{
  "source": "patent US6433150B1",
  "about": "“Anthracycline analogues bearing latent alkylating substituents” (Board of Regents, The University of Texas System, priority 1990, dated 2002)",
  "key": {"[1]": {"test_system": "P388", "details": "cited from earlier work"}, "[2]": {"test_system": "CEM cells (human T-lymphoblastic cell line)", "test": "Cytotoxicity studies, CEM cells", "type": "cell-based", "details": "for IC50: six days incubation with drug at 37° C."}, "[3]": {"test": "Solubility in aqueous media", "type": "physicochemical", "from_the_text": "(§1) To the best of applicants' knowledge, dialdehyde monoacetals such as 10 have not been reported previously. [These should be versatile synthetons in organic synthesis since the acetal ester groups can be cleaved under extremely mild conditions (weak base or esterase activity)]. Condensation of 10 with doxorubicin, 11, in the presence of NaCNBH3 generated 2a directly in >50% yield. Evidence for the structure of 2a was obtained by ^1H and COSY NMR, and by mass spectrometry."}, "[4]": {"test": "Stability at neutral pH", "type": "physicochemical", "from_the_text": "as §1"}, "[5]": {"test_system": "CEM (VLB) cells (human T-lymphoblastic cell line resistant to Velban (vinblastine))", "test": "Cytotoxicity studies, CEM (VLB) cells", "type": "cell-based", "details": "for Resistance index ([CEM(VLB)]/[CEM]): ratio of IC50 values; for IC50: six days incubation with drug at 37° C., Velban (vinblastine) resistant line"}, "[6]": {"test_system": "8226R40 human myeloma cells", "test": "Potency to 8226R40 human myeloma cells", "type": "cell-based"}},
  "note": "Read-outs that look alike come from different tables or passages of the source.",
  "data": [
    {"compound": "COc1cccc2c1C(=O)c1c(O)c3c(c(O)c1C2=O)C[C@@](O)(C(C)=O)C[C@@H]3O[C@H]1C[C@H](N2CCOCC2)[C@H](O)[C@H](C)O1", "note": "[3′-Deamino-3-(4-morpholinyl)daunorubicin]", "values": [
      {"measurement": "T/C value against P388", "setting": "[1]", "value": 166, "unit": "%"},
      {"measurement": "active dose relative to the dose of doxorubicin", "setting": "[1]", "value": "one-fortieth"}
    ]},
    {"compound": "COc1cccc2c1C(=O)c1c(O)c3c(c(O)c1C2=O)C[C@@](O)(C(=O)CO)C[C@@H]3O[C@H]1C[C@H](NCCCCC(OC(C)=O)OC(C)=O)[C@H](O)[C@H](C)O1.Cl", "note": "[Compound 2a, N-(5,5-Diacetoxypentyl) doxorubicin hydrochloride]", "values": [
      {"measurement": "times more toxic to the parent CEM cells than doxorubicin", "setting": "[2]; relative to doxorubicin", "value": 60, "unit": "times"},
      {"measurement": "IC50", "setting": "[2]", "value": 0.15, "unit": "nM"},
      {"measurement": "solubility in aqueous media", "setting": "[3]", "value": "freely soluble"},
      {"measurement": "stability at neutral pH", "setting": "[4]", "value": "stable"},
      {"measurement": "cross resistance against the velban resistant mutant", "setting": "[5]; compared with doxorubicin", "value": "markedly reduced cross resistance"},
      {"measurement": "Resistance index ([CEM(VLB)]/[CEM])", "setting": "[5]", "value": 6},
      {"measurement": "IC50", "setting": "[5]", "value": 1, "unit": "nM"},
      {"measurement": "IC50", "setting": "[6]", "value": 1.5, "unit": "nM"},
      {"measurement": "times more potent to 8226R40 human myeloma cells than doxorubicin", "setting": "[6]; relative to doxorubicin", "value": 400, "unit": "times"}
    ]},
    {"compound": "COc1cccc2c1C(=O)c1c(O)c3c(c(O)c1C2=O)C[C@@](O)(C(=O)CO)C[C@@H]3O[C@H]1C[C@H](N)[C@H](O)[C@H](C)O1", "note": "[Doxorubicin, reference compound]", "values": [
      {"measurement": "IC50", "setting": "[2]; Homo sapiens, CCRF-CEM, 144 h", "value": 10, "unit": "nM"},
      {"measurement": "T/C value against P388", "setting": "[1]", "value": 160, "unit": "%"},
      {"measurement": "IC50", "setting": "[5]; Homo sapiens, CEM-VLB, 144 h", "value": 1340, "unit": "nM"},
      {"measurement": "Resistance index ([CEM(VLB)]/[CEM])", "setting": "[5]", "value": 134},
      {"measurement": "IC50", "setting": "[6]; Homo sapiens", "value": 600, "unit": "nM"}
    ]},
    {"compound": "N-(2,2-Diacetoxyethyloxyethyl) doxorubicin HCl [Compound 2b]", "values": [
      {"measurement": "IC50", "setting": "[2]", "value": 3, "unit": "nM"},
      {"measurement": "Resistance index ([CEM(VLB)]/[CEM])", "setting": "[5]", "value": 5},
      {"measurement": "IC50", "setting": "[5]", "value": 15, "unit": "nM"}
    ]}
  ]
}
